Key:
Cannabinoid receptor 1 = Cannabinoid receptor 1 (Rattus norvegicus, UniProt P20272); experiment: Binding affinity towards rat brain cannabinoid receptor 1 in the presence of PMSF upon incubation for 15 min at 4 degree C in pH 7.4 using [3H]CP-55940
Cannabinoid receptor 2 = Cannabinoid receptor 2 (Mus musculus, UniProt P47936); experiment: Binding affinity towards mouse spleen cannabinoid receptor 2 in the presence of PMSF upon incubation for 15 min at 4 degree C in pH 7.4 using [3H]CP-55940; type: tissue-based
Chain of Cannabinoid receptor 2 (P47936 whole entry): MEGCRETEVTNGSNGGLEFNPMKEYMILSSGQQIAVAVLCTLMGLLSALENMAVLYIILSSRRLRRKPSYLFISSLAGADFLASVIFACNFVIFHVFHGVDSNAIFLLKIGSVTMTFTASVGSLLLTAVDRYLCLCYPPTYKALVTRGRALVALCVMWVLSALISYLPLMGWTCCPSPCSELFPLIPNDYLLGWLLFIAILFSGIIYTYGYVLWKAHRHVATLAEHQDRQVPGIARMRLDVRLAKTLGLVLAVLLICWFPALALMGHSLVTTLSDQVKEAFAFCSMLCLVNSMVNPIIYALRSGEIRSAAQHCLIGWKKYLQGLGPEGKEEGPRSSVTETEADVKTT

Chain of Cannabinoid receptor 1 (P20272 whole entry): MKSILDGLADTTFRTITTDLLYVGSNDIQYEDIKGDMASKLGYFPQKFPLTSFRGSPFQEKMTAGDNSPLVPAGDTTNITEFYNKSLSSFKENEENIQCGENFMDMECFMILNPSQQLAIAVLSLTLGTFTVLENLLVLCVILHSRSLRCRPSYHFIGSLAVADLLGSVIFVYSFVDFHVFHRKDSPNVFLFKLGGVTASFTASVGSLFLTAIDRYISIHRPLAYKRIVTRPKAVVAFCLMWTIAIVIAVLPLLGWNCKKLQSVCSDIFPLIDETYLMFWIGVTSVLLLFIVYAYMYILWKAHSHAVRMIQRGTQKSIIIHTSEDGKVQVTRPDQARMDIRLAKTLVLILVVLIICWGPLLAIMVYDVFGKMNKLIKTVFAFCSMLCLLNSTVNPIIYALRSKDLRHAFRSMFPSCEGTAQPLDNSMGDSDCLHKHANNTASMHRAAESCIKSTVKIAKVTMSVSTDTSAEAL

SMILES | Ki (Cannabinoid receptor 1) [nM] | Ki (Cannabinoid receptor 2) [nM]
O=C(CCC/C=C\C/C=C\C/C=C\C/C=C\CCCCCN=C=S)NC1CC1 | 1.3 | 48.5
CCCCC/C=C\C/C=C\C/C=C\C/C=C\CCCC(=O)NC1CC1 | 2.7 | 157
